Legend:
[1] = system: southern crabgrass; test: Test Example 4: herbicidal effect by soil treatment (Table 19, symbol F); assay type: in vivo, southern crabgrass (Digitaria ciliaris); conditions: for F: southern crabgrass, herbicidal effect rating: AAH 320 g/ha
How it was run: (§1)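 Herbicidal effect was rated 3 weeks after treatment, using the scoring criteria of an earlier test. The compound, formulated as an emulsion and diluted in water to a set herbicide amount, had been sprayed uniformly on soil over freshly sown seeds. Growth took place in a greenhouse at 25° C. to 30° C.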

[2] = system: chickweed; test: Test Example 4: herbicidal effect by soil treatment (Table 19, symbol P); assay type: in vivo, common chickweed (Stellaria media); conditions: for P: chickweed, herbicidal effect rating: AAH 320 g/ha
How it was run: as §1

[3] = system: Italian ryegrass; test: Test Example 4: herbicidal effect by soil treatment (Table 19, symbol K); assay type: in vivo, Italian ryegrass (Lolium multiflorum); conditions: for K: Italian ryegrass, herbicidal effect rating: AAH 320 g/ha
How it was run: as §1

[4] = system: wild oat; test: Test Example 5: herbicidal effect by foliage application, plastic box (Table 20, symbol I); assay type: in vivo, wild oat (Avena fatua); conditions: foliage application; for I: wild oat, herbicidal effect: three weeks after application
How it was run: (§2)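 Foliar spray test: emulsion formulation diluted in water to a set application rate, sprayed onto 14-day-old plants raised in diluvial soil at 25° C to 30° C under glass. Both herbicidal effect and crop effect rated visually three weeks later.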

[5] = system: chickweed; test: Test Example 5: herbicidal effect by foliage application, plastic box (Table 20, symbol P); assay type: in vivo, common chickweed (Stellaria media); conditions: foliage application; for P: chickweed, herbicidal effect: three weeks after application
How it was run: as §2

[6] = system: late watergrass; test: Test Example 1: herbicidal activity, application before weed generation under submerged conditions (Table 16, symbol A); assay type: in vivo, late watergrass (Echinochloa oryzicola); conditions: 320 g/ha applied herbicide
How it was run: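 Submerged Wagner pots (alluvial soil, 4 cm water) sown with weed seeds and planted with 2.5-leaf rice seedlings; emulsifiable concentrate diluted in water applied to water surface on sowing day. Held in greenhouse at 25-30 °C; injury scored 0-5 by herbicidal rate after three weeks.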

[7] = system: rice flat sedge; test: Test Example 3: herbicidal effect by foliage application, Wagner pot (Table 18, symbol E); assay type: in vivo, rice flat sedge (Cyperus iria); conditions: for herbicidal effect on E (rice flat sedge), rating 0-5: 320 g/ha
How it was run: (§3)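 Plants were sown in alluvial soil held under 0.1–0.5 cm standing water and grown 14 days in a greenhouse at 25–30 °C. An emulsifiable formulation, water-diluted to the set dose, was then sprayed onto the foliage, and effects were scored three weeks later using previously defined criteria.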

[8] = system: lambsquarters; test: Test Example 4: herbicidal effect by soil treatment (Table 19, symbol O); assay type: in vivo, lambsquarters (Chenopodium album); conditions: for O: lambsquarters, herbicidal effect rating: AAH 320 g/ha
How it was run: as §1

[9] = system: wild oat; test: Test Example 4: herbicidal effect by soil treatment (Table 19, symbol I); assay type: in vivo, wild oat (Avena fatua); conditions: for I: wild oat, herbicidal effect rating: AAH 320 g/ha
How it was run: as §1

[10] = system: lambsquarters; test: Test Example 5: herbicidal effect by foliage application, plastic box (Table 20, symbol O); assay type: in vivo, lambsquarters (Chenopodium album); conditions: foliage application; for O: lambsquarters, herbicidal effect: three weeks after application
How it was run: as §2

[11] = system: barnyard grass; test: Test Example 5: herbicidal effect by foliage application, plastic box (Table 20, symbol H); assay type: in vivo, barnyard grass (Echinochloa crus-galli); conditions: foliage application; for H: barnyard grass, herbicidal effect: three weeks after application
How it was run: as §2

[12] = system: Italian ryegrass; test: Test Example 5: herbicidal effect by foliage application, plastic box (Table 20, symbol K); assay type: in vivo, Italian ryegrass (Lolium multiflorum); conditions: foliage application; for K: Italian ryegrass, herbicidal effect: three weeks after application
How it was run: as §2

[13] = system: Chinese sprangletop; test: Test Example 3: herbicidal effect by foliage application, Wagner pot (Table 18, symbol D); assay type: in vivo, chinese sprangletop (Leptochloa chinensis); conditions: for herbicidal effect on D (Chinese sprangletop), rating 0-5: 320 g/ha
How it was run: as §3

[14] = system: late watergrass; test: Test Example 2: herbicidal activity, application during weed generation under submerged conditions (Table 17, symbol A); assay type: in vivo, late watergrass (Echinochloa oryzicola); conditions: AAH 320 g/ha; application during weed generation, submerged conditions
How it was run: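 Herbicide emulsion, diluted with water to the chosen amount, is applied onto 4 cm floodwater over alluvial soil where the weeds were co-sown and raised at 25–30° C. Application timing: 1–2 leaves. Assessment: three weeks afterwards.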

[15] = system: redroot pigweed; test: Test Example 5: herbicidal effect by foliage application, plastic box (Table 20, symbol N); assay type: in vivo, redroot pigweed (Amaranthus retroflexus); conditions: foliage application; for N: redroot pigweed, herbicidal effect: three weeks after application
How it was run: as §2

[16] = amount of applied herbicide 320 g/ha
[17] = 320 g/ha, 3 weeks after application
[18] = 320 g/ha, evaluated three weeks after application
[19] = AAH 320 g/ha, evaluated three weeks after application

Compound	I: wild oat, herbicidal effect ([4]; AAH 320 g/ha)	P: chickweed, herbicidal effect ([5]; AAH 320 g/ha)	Herbicidal effect on A: late watergrass (grade 0-5) [6]	herbicidal effect on E (rice flat sedge), rating 0-5 [7]	O: lambsquarters, herbicidal effect ([10]; AAH 320 g/ha)	H: barnyard grass, herbicidal effect ([11]; AAH 320 g/ha)	K: Italian ryegrass, herbicidal effect ([12]; AAH 320 g/ha)	herbicidal effect on D (Chinese sprangletop), rating 0-5 [13]	herbicidal effect rating, A: late watergrass [14]	N: redroot pigweed, herbicidal effect ([15]; AAH 320 g/ha)	F: southern crabgrass, herbicidal effect rating [1]	P: chickweed, herbicidal effect rating [2]	K: Italian ryegrass, herbicidal effect rating [3]	O: lambsquarters, herbicidal effect rating [8]	I: wild oat, herbicidal effect rating [9]	further results
C=CCOc1ccccc1-c1sc2ccccc2c1-c1c(O)c(C)nn(C)c1=O [1-110]	3 (Herbicidal rate of 40% or more and less than 70%)	5 (Herbicidal rate of 90% or more (almost completely withered))	3 (Herbicidal rate of 40% or more and less than 70%)	4 (Herbicidal rate of 70% or more and less than 90%)	0 (Herbicidal rate of 5% or less (almost no effect))	3 (Herbicidal rate of 40% or more and less than 70%)	0 (Herbicidal rate of 5% or less (almost no effect))	3 (Herbicidal rate of 40% or more and less than 70%)	3 (Herbicidal rate of 40% or more and less than 70%)	0 (Herbicidal rate of 5% or less (almost no effect))	–	–	–	–	–	herbicidal effect rating, F: southern crabgrass [1, 16]: 3 (Herbicidal rate of 40% or more and less than 70%); herbicidal effect rating, P: chickweed [2, 16]: 3 (Herbicidal rate of 40% or more and less than 70%); herbicidal effect rating, K: Italian ryegrass [3, 16]: 2 (Herbicidal rate of 20% or more and less than 40%); herbicidal effect rating, O: lambsquarters [8, 16]: 0 (Herbicidal rate of 5% or less (almost no effect)); herbicidal effect rating, I: wild oat [9, 16]: 1 (Herbicidal rate of 5% or more and less than 20%)
Cc1nn(C)c(=O)c(-c2c(-c3ccc(OCC(F)(F)F)cc3)sc3ccccc23)c1O [1-140]	0 (Herbicidal rate of 5% or less (almost no effect))	5 (Herbicidal rate of 90% or more (almost completely withered))	3 (Herbicidal rate of 40% or more and less than 70%)	5 (Herbicidal rate of 90% or more (almost completely withered))	5 (Herbicidal rate of 90% or more (almost completely withered))	5 (Herbicidal rate of 90% or more (almost completely withered))	5 (Herbicidal rate of 90% or more (almost completely withered))	3 (Herbicidal rate of 40% or more and less than 70%)	3 (Herbicidal rate of 40% or more and less than 70%)	4 (Herbicidal rate of 70% or more and less than 90%)	5 (Herbicidal rate of 90% or more (almost completely withered))	4 (Herbicidal rate of 70% or more and less than 90%)	5 (Herbicidal rate of 90% or more (almost completely withered))	5 (Herbicidal rate of 90% or more (almost completely withered))	0 (Herbicidal rate of 5% or less (almost no effect))	–
Cc1nn(C)c(=O)c(-c2c(-c3ccc(OC(F)F)cc3)sc3ccccc23)c1O [1-201]	–	–	3 (Herbicidal rate of 40% or more and less than 70%)	5 (Herbicidal rate of 90% or more (almost completely withered))	–	–	–	4 (Herbicidal rate of 70% or more and less than 90%)	0 (Herbicidal rate of 5% or less (almost no effect))	–	2 (Herbicidal rate of 20% or more and less than 40%)	4 (Herbicidal rate of 70% or more and less than 90%)	4 (Herbicidal rate of 70% or more and less than 90%)	5 (Herbicidal rate of 90% or more (almost completely withered))	0 (Herbicidal rate of 5% or less (almost no effect))	effect on wild oat (I) [4, 17]: 2 (Herbicidal rate of 20% or more and less than 40%); effect on lambsquarters (O) [10, 17]: 5 (Herbicidal rate of 90% or more (almost completely withered)); effect on barnyard grass (H) [11, 17]: 5 (Herbicidal rate of 90% or more (almost completely withered)); effect on Italian ryegrass (K) [12, 17]: 5 (Herbicidal rate of 90% or more (almost completely withered))
CCCC(=O)Oc1c(C)nn(C)c(=O)c1-c1c(-c2ccc(C(C)=O)cc2)sc2ccc(F)cc12 [2-078]	–	–	5 (Herbicidal rate of 90% or more (almost completely withered))	5 (Herbicidal rate of 90% or more (almost completely withered))	–	–	–	5 (Herbicidal rate of 90% or more (almost completely withered))	3 (Herbicidal rate of 40% or more and less than 70%)	–	–	–	–	–	–	herbicidal effect rating, F: southern crabgrass ([1]; 320 g/ha): 0 (Herbicidal rate of 5% or less (almost no effect)); herbicidal effect rating, P: chickweed ([2]; 320 g/ha): 3 (Herbicidal rate of 40% or more and less than 70%); herbicidal effect rating, K: Italian ryegrass ([3]; 320 g/ha): 4 (Herbicidal rate of 70% or more and less than 90%); herbicidal effect on I: wild oat [4, 18]: 2 (Herbicidal rate of 20% or more and less than 40%); herbicidal effect on P: chickweed [5, 18]: 5 (Herbicidal rate of 90% or more (almost completely withered)); herbicidal effect rating, O: lambsquarters ([8]; 320 g/ha): 4 (Herbicidal rate of 70% or more and less than 90%); herbicidal effect rating, I: wild oat ([9]; 320 g/ha): 0 (Herbicidal rate of 5% or less (almost no effect)); herbicidal effect on O: lambsquarters [10, 18]: 4 (Herbicidal rate of 70% or more and less than 90%); herbicidal effect on H: barnyard grass [11, 18]: 2 (Herbicidal rate of 20% or more and less than 40%); herbicidal effect on K: Italian ryegrass [12, 18]: 5 (Herbicidal rate of 90% or more (almost completely withered)); herbicidal effect on N: redroot pigweed [15, 18]: 5 (Herbicidal rate of 90% or more (almost completely withered))
Cc1nn(C)c(=O)c(-c2c(-c3ccc(OC(F)F)cc3)sc3ccc(F)cc23)c1OC(=O)c1cccs1 [2-288]	–	–	5 (Herbicidal rate of 90% or more (almost completely withered))	–	–	–	–	–	3 (Herbicidal rate of 40% or more and less than 70%)	–	–	–	–	–	–	herbicidal effect on F: southern crabgrass [1, 16]: 3 (Herbicidal rate of 40% or more and less than 70%); herbicidal effect on P: chickweed [2, 16]: 4 (Herbicidal rate of 70% or more and less than 90%); herbicidal effect on K: Italian ryegrass [3, 16]: 4 (Herbicidal rate of 70% or more and less than 90%); I: wild oat, herbicidal effect (criteria 0-5) [4, 19]: 1 (Herbicidal rate of 5% or more and less than 20%); P: chickweed, herbicidal effect (criteria 0-5) [5, 19]: 5 (Herbicidal rate of 90% or more (almost completely withered)); herbicidal effect on E: rice flat sedge [7, 16]: 5 (Herbicidal rate of 90% or more (almost completely withered)); herbicidal effect on O: lambsquarters [8, 16]: 4 (Herbicidal rate of 70% or more and less than 90%); herbicidal effect on I: wild oat [9, 16]: 0 (Herbicidal rate of 5% or less (almost no effect)); O: lambsquarters, herbicidal effect (criteria 0-5) [10, 19]: 5 (Herbicidal rate of 90% or more (almost completely withered)); H: barnyard grass, herbicidal effect (criteria 0-5) [11, 19]: 5 (Herbicidal rate of 90% or more (almost completely withered)); K: Italian ryegrass, herbicidal effect (criteria 0-5) [12, 19]: 5 (Herbicidal rate of 90% or more (almost completely withered)); herbicidal effect on D: Chinese sprangletop [13, 16]: 4 (Herbicidal rate of 70% or more and less than 90%); N: redroot pigweed, herbicidal effect (criteria 0-5) [15, 19]: 5 (Herbicidal rate of 90% or more (almost completely withered))
